{"source": "patent US8580534B2", "about": "“Method for incorporation of two oxygen atoms into digested peptides using peptidases” (The University of North Dakota, priority 2006, dated 2013)", "key": {"[1]": {"assay": "pH dependency of the carboxyl oxygen exchange reaction (18O incorporation into Ac-Lys-OH)", "assay_type": "biochemical", "conditions": "10 mM Ac-Lys-OH, 1 μM enzyme, 25° C., 95% H2^18O, pH 4.0-9.0 examined", "protocol": "The initial rate of carboxyl oxygen exchange reaction catalyzed by Lys-C and trypsin was determined by monitoring the rate of ^18O atom incorporation into the carboxyl terminus of Ac-Lys-OH. For the pH studies, a 10 mM solution of Ac-Lys-OH in aqueous buffers at different pHs was incubated with 1 μM Lys-C or trypsin at 25° C. in 95% H2^18O buffered at various pHs. The buffer solutions used were 50 mM citrate at pH 4.0, 5.0 and 6.0 (pH adjusted by addition of NaOH), 50 mM phosphate at pH 7.0 and 8.0 (pH adjusted by addition of NaOH) and 50 mM Tris at pH 9.0 (pH adjusted by addition of HCl). The duration of the reaction was 5 minutes for Lys-C and 20 minutes for trypsin. […] The single ^18O atom incorporated reaction product, Ac-Lys-^18OH, in the reconstituted reaction solution was then quantified by stable isotope dilution tandem mass spectrometry, as described below. […]\n(§1) An Agilent 1100 HPLC system (Palo Alto, Calif.) coupled to an API 3000 triple quadrupole mass spectrometer equipped with a TurbolonSpray™ ion source (Applied Biosystems-MDS-Sciex, Foster City, Calif.) was used to quantify Ac-Lys-^18OH. […]\n(§2) Amounts of Ac-Lys-^18OH in the reaction mixture were determined from the chromatographic peak area ratios of the analyte over the internal standard, assuming identical ionization efficiencies and identical yields of fragment ions for Ac-Lys-^18OH and [^13C2]Ac-Lys-OH. […]"}, "[2]": {"assay": "amidase activity (hydrolysis of Ac-Lys-NH2 in H2^18O)", "assay_type": "biochemical", "conditions": "10 mM Ac-Lys-NH2, 25° C., 95% H2^18O, within the pH range examined", "protocol": "The amidase activity of Lys-C and trypsin was measured by monitoring the initial rate of hydrolysis of Ac-Lys-NH2 in H2^18O. Ac-Lys-NH2 (10 mM) was incubated with 0.2 uM Lys-C or 1 uM trypsin at 25° C. in 95% H2^18O at various pHs. The buffer solutions used were the same as described above for the carboxyl oxygen exchange reactions. The duration of the reaction was 5 min for Lys-C and 20 min for trypsin. The single ^18O atom incorporated reaction product, Ac-Lys-^18OH, was quantified after addition of a [^13C2]Ac-Lys-OH internal standard (0.75 μg) by stable isotope dilution tandem mass spectrometry, as described below. All reactions were carried out in triplicate.\nas §1\nThe ion spray voltage and the ion source probe temperature were set at 5 kV and 400° C., respectively. […] The precursor and fragment ions monitored were m/z 191 (Ac-Lys-^18OH+H) and 149 (H-Lys-^18OH+H) for Ac-Lys-^18OH and m/z 191 ([^13C2]Ac-Lys-OH+H) and 147 (H-Lys-^16OH+H) for [^13C2]Ac-Lys-OH, respectively. […]"}, "[3]": {"assay": "steady-state kinetic parameters for the carboxyl oxygen exchange reaction", "assay_type": "biochemical", "protocol": "The steady-state kinetic parameters for the carboxyl oxygen exchange reaction by Lys-C and trypsin were obtained at two different pHs (pH 9.0 and 5.0 for Lys-C and pH 8.0 and 6.0 for trypsin). Ac-Lys-OH (0.0625-10 mM) was incubated with 1 uM Lys-C or trypsin at 30° C. in 95% H2^1 80 buffered at various pHs (described above). The total volume of the reaction was 20 μL. The duration of the reaction was 10 min for Lys-C and 20 min for trypsin. The single ^18O atom incorporated reaction product, Ac-Lys-180H, was quantified after addition of a [^13C2]Ac-Lys-OH internal standard (0.75 μg) by stable isotope dilution tandem mass spectrometry, as described below. All reactions were carried out in triplicate.\nKm and Vmax values were calculated by fitting the Michaelis-Menten equation to the experimental data using SigmaPlot 9.01 (Systat Software, Richmond, Calif.). Kcat values were calculated by dividing the obtained Vmax values by the total enzyme amount added to the system.\nAn Agilent 1100 HPLC system (Palo Alto, Calif.) coupled to an API 3000 triple quadrupole mass spectrometer equipped with a TurbolonSpray™ ion source (Applied Biosystems-MDS-Sciex, Foster City, Calif.) was used to quantify Ac-Lys-^18OH. The reconstituted reaction mixtures were injected (typically 5 μL) onto a reversed-phase C18 column (2.1×150 mm, 5 μm, 300 Å, Vydac) equilibrated with 5% acetonitrile/0.1% HFBA (v/v) in water and then eluted with the same solvent at a flow rate of 200 μL/min. A switching valve (Valco Instrument, Houston, Tex.) was placed between the HPLC system and the mass spectrometer to divert non-volatile salt fractions from the mass spectrometer at the beginning of the run. The switching valve was switched in-line with the mass spectrometer at 3 minutes after the injection. The elution time of Ac-Lys-^18OH was 3.8 minutes.\nThe ion spray voltage and the ion source probe temperature were set at 5 kV and 400° C., respectively. Nitrogen was used both as a nebulizer and as an auxiliary gas, at flow rates of 3 and 8 L/min, respectively. A multiple reaction monitoring mode was used for monitoring Ac-Lys-^18OH and [^13C2]Ac-Lys-OH. The precursor and fragment ions monitored were m/z 191 (Ac-Lys-^18OH+H) and 149 (H-Lys-^18OH+H) for Ac-Lys-^18OH and m/z 191 ([^13C2]Ac-Lys-OH+H) and 147 (H-Lys-^16OH+H) for [^13C2]Ac-Lys-OH, respectively. […]\nas §2, with “[^13C2]Ac-Lys-OH. The experimentally determined amounts of Ac-Lys-^18OH were corrected upward 5%, accounting for 60 incorporation resulting from the H2^18O solvent having a 5% H2^16O content.” for “[^13C2]Ac-Lys-OH.”"}, "[4]": {"test_system": "apomyoglobin peptide that has a lysine residue at the C-terminus (Lys-peptide)", "assay": "18O atom incorporation into apomyoglobin Lys-peptides by LC/MS", "assay_type": "biochemical, Horse", "protocol": "(§3) We semi-quantitatively measured the rate of ^18O atom incorporation into Lys-C and tryptic peptides derived from apomyoglobin. This was done to test whether the increased rate of carboxyl oxygen exchange noted for the reaction of Ac-Lys-OH at acidic pH could be generalized to peptide substrates. Apomyoglobin (34 μg) was digested for 16 hours at 25° C. with either 1 μg of Lys-C or trypsin in 100 mM ammonium bicarbonate in H2^16O solvent. The digestion was stopped by adding formic acid to a final concentration of 1% and by boiling the reaction mixture for 2 minutes. The resulting Lys-C and tryptic peptides were lyophilized and used in the following experiments.\n(§4) The rate of the carboxyl oxygen exchange reaction into the Lys-C and tryptic peptides by Lys-C and trypsin, respectively, were semi-quantitatively measured by looking at the rate of ^18O atom incorporation into the carboxyl termini of the peptides by LC/MS (described below). The Lys-C and tryptic digests (both 1.5 μg) were incubated with Lys-C and trypsin (both 0.03 μg), respectively, in H2^18O at 30° C. buffered (see above) at pH 5.0 or 9.0 for Lys-C and pH 6.0 or 8.0 for trypsin for various reaction times (1 minute-60 minutes). The total reaction volume was 50 μL. Aliquots (5 μL) of the reaction mixtures were taken after 1, 5, 10, and 60 minutes. The reactions were stopped by mixing with 40 μL of 10% formic acid and by heating at 95° C. for 2 minutes. After the heat treatment, the solvents were evaporated in the speed-vac concentrator and the samples were stored at −20° C. until use.\nThe stored ^18O labeled peptide mixtures were reconstituted in 20 μL of aqueous 0.1% trifluoroacetic acid (TFA), desalted by a C18 ZipTip as per the manufacturer's instructions (Millipore, Bedford, Mass.), and subjected to LC/MS analysis using an UltiMate nano HPLC system (Dionex, San Francisco, Calif.) interfaced to a QStar quadrupole/time of flight mass spectrometer (Applied Biosystems-MDS Sciex, Foster City, Calif.), as described previously. Briefly, the peptide mixture (5 μl) was injected directly into a reverse-phase analytical column (0.075×60 mm, New Objective Inc., Woburn, Mass.) packed with Jupiter C18 media (Phenomenex, Torrance, Calif.), washed with 2% acetonitrile/0.1% formic acid (v/v) in water for 15 minutes at flow rate of 2 μL/min. The peptides were then eluted with a 40 minute linear gradient of 2% acetonitrile/0.1% formic acid (v/v) in water to 40% acetonitrile/0.1% formic acid (v/v) in water at a flow rate of 200 nL/min. The column effluent was directed on-line to a nano-electrospray ion source. The total ion current was obtained in the mass range of m/z 400-1600 in the positive ion mode. The electrospray and orifice voltages were 2050V and 65V, respectively."}, "[5]": {"test_system": "peptide that has an arginine residue at the C-terminus (Arg-peptide)", "assay": "18O atom incorporation into apomyoglobin Arg-peptides by LC/MS", "assay_type": "biochemical, Horse", "conditions": "for time to complete incorporation of two ^18O atoms: H2^18O", "protocol": "as §3, §4\nThe stored ^18O labeled peptide mixtures were reconstituted in 20 μL of aqueous 0.1% trifluoroacetic acid (TFA), desalted by a C18 ZipTip as per the manufacturer's instructions (Millipore, Bedford, Mass.), and subjected to LC/MS analysis using an UltiMate nano HPLC system (Dionex, San Francisco, Calif.) interfaced to a QStar quadrupole/time of flight mass spectrometer (Applied Biosystems-MDS Sciex, Foster City, Calif.), as described previously. […]"}}, "data": [{"substance": "trypsin", "values": [{"measurement": "optimum pH of the carboxyl oxygen exchange reaction", "setting": "[1]", "value": 6.0, "unit": "pH"}, {"measurement": "most favorable pH for the amidase activity", "setting": "[2]", "value": 9, "unit": "pH"}, {"measurement": "kcat/Km of carboxyl oxygen exchange, fold lower than reported kcat/Km for amide hydrolysis", "setting": "[3]; pH 6.0 versus N-benzoyl-L-lysine amide hydrolysis at pH 8.0", "value": 5.1, "unit": "fold"}, {"measurement": "Km, fold smaller at acidic than at alkaline pH", "setting": "[3]; pH 6.0 versus pH 8.0", "value": "about 3 fold"}, {"measurement": "kcat, fold higher at acidic than at alkaline pH", "setting": "[3]; pH 6.0 versus pH 8.0", "value": "about 5 fold"}, {"measurement": "rate of the carboxyl oxygen exchange", "setting": "[3]; pH 9.0", "value": "too low"}, {"measurement": "time to complete incorporation of two ^18O atoms", "setting": "[4]; pH 6.0, 30° C., H2^18O", "value": "≤ 10", "unit": "min"}, {"measurement": "dominant result after 1 minute of incubation", "setting": "[4]; pH 6.0 and 8.0", "value": "incorporation of only one ^18O atom"}, {"measurement": "dominant result of ^18O incorporation", "setting": "[4]; pH 8.0, 30° C., H2^18O", "value": "incorporation of only one ^18O atom"}, {"measurement": "time to complete incorporation of two ^18O atoms", "setting": "[4]; pH 8.0, 30° C., H2^18O", "value": "> 60", "unit": "min"}, {"measurement": "dominant peak after 1 minute of incubation", "setting": "[5]; both pH 6.0 and 8.0", "value": "two ^18O atoms"}, {"measurement": "time to complete incorporation of two ^18O atoms", "setting": "[5]; pH 6.0, 30° C.", "value": "≤ 10", "unit": "min"}, {"measurement": "time to complete incorporation of two ^18O atoms", "setting": "[5]; pH 8.0, 30° C.", "value": 60, "unit": "min"}]}]}
